Four compounds from ChEMBL document CHEMBL3108748, “Telomere maintenance as a target for drug discovery” (J Med Chem, 2014) can be followed below.

The target in assay [1] is T1, Telomerase reverse transcriptase (Homo sapiens, UniProt O14746). The assay can be described thus: Inhibition of human telomerase activity in human Jurkat cells by TRAP assay. It counts as cell-based.
In assay [2] the target is T1, Telomerase reverse transcriptase. The assay can be described thus: Inhibition of human telomerase activity by TRAP assay.
Assay [3] deals with Telomerase reverse transcriptase (Rattus norvegicus, UniProt Q673L6). The assay can be described thus: Inhibition of rat telomerase by TRAP assay.
The target in assay [4] is T1, Telomerase reverse transcriptase. The assay is described as follows: Inhibition of human telomerase activity after 8 mins by SYBR Green staining-based TRAP assay.

T1 sequence (O14746 whole entry): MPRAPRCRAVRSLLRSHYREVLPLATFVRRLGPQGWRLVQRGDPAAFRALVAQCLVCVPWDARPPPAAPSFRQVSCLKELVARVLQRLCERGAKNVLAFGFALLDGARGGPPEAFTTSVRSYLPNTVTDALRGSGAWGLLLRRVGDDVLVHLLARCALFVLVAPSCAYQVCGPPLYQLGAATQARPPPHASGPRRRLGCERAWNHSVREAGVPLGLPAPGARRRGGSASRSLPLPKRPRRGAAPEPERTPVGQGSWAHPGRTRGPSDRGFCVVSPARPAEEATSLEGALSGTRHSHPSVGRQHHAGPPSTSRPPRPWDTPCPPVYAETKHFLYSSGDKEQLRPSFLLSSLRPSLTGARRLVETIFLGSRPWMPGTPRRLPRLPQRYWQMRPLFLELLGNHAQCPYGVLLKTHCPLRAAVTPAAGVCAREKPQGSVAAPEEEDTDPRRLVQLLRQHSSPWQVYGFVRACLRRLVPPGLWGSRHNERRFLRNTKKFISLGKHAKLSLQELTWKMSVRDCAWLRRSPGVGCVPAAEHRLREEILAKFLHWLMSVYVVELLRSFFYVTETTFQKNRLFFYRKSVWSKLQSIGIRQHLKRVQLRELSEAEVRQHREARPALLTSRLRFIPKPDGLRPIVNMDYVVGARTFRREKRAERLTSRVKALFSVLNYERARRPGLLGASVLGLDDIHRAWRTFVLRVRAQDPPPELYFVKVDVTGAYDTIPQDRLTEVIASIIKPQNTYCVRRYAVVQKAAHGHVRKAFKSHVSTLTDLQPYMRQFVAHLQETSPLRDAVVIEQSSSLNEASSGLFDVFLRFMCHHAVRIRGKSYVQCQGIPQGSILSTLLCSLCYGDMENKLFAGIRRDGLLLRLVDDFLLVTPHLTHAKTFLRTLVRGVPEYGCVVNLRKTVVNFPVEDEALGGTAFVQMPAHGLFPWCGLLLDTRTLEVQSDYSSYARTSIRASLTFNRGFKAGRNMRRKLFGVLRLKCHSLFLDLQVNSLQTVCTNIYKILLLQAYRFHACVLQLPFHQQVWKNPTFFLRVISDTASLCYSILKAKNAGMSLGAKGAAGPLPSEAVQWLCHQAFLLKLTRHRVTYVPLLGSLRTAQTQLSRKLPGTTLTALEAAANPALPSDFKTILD
Chain of Telomerase reverse transcriptase (Rattus norvegicus, UniProt Q673L6) (Q673L6 whole entry): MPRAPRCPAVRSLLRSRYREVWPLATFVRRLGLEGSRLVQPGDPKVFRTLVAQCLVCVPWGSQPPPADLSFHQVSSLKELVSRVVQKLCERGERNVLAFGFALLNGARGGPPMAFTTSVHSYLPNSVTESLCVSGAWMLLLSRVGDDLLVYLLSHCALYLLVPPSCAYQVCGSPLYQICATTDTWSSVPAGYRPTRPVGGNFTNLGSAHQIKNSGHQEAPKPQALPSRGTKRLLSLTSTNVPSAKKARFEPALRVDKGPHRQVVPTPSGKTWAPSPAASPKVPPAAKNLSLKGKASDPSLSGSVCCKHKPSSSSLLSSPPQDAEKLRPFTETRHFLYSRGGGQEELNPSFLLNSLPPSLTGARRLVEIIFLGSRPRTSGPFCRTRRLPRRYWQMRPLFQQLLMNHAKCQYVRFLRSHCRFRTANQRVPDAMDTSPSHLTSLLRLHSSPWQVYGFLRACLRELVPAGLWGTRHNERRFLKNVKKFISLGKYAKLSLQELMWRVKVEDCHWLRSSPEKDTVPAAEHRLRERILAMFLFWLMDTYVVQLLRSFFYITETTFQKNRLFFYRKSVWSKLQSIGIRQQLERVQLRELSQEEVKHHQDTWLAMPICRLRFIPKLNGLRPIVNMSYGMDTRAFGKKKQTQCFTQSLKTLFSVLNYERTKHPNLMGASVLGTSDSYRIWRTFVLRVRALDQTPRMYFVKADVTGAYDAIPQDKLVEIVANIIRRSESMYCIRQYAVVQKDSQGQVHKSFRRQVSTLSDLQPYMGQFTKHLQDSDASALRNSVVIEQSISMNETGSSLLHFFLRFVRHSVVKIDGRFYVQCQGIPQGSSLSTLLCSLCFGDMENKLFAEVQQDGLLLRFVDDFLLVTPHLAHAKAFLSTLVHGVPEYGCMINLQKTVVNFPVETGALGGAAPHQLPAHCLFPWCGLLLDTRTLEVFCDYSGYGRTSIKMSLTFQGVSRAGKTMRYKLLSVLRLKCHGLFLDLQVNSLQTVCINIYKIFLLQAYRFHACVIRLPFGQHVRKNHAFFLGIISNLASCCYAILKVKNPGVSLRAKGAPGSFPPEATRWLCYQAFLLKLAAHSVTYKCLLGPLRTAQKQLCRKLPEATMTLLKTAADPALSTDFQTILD

On to `COc1ccc2c(c1)CC[C@@H]1[C@@H]2CC[C@]2(C)[C@@H](NCCCCCCN3C(=O)C=CC3=O)CC[C@@H]12`, for which, in assay [1], the IC50 – broadly, the point on the concentration scale where inhibition reaches its midpoint – stood at 0.2 µM.

In assay [2], `N=C(N)Nc1nc(-c2cc(Cl)sc2Cl)cs1` gave an IC50 of 1 µM.

`O=c1ccsn1-c1cccc(C(F)(F)F)c1`: half-maximal inhibition in assay [3] (IC50) was put at 1 µM.

Regarding `O=[N+]([O-])/C=C/c1cccc(Oc2cc(Cl)cc(Cl)c2)c1`, in assay [4], the IC50 worked out at 0.4 µM. This counts as sub-micromolar.
